# Reference: patent US7964613B2 (Asahi Kasei Pharma Corporation, priority 2007, dated 2011)
# Tests used:
# [1] = biological target: T1, human ROCK1 (Homo sapiens, UniProt Q13464); test: Measurement of Rho kinase inhibitory activity (ELISA of MBS phosphorylation); type: biochemical; conditions: human ROCK1, MBS substrate, 100 μM ATP, 30° C. for 10 minutes
# T1 construct: His tag (N); host or cells: insect cells (Sf9)
# Experimental: In this test, human ROCK1 was used as Rho kinase, MBS (myosin binding subunit, subunit constituting myosin phosphatase) was used as the substrate of Rho kinase, and an anti-phosphorylated MBS antibody was used for detection of phosphorylation. The activity for inhibiting Rho kinase was determined by measuring phosphorylation of MBS by the Rho kinase by ELISA in the presence of an appropriately diluted test compound. As the Rho kinase used, a recombinant protein (N-terminal His-tagged recombinant human ROCK1 residues (1Met-[…])) was used, which was produced in insect cells (Sf9) using a sequence (1-727), of which activity was confirmed in the paper of Ishizaki et al. (Ishizaki, T. et al., FEBS Letters, 404, pp 118-124, 1997), based on the sequence of human ROCK1 (p 160 ROCK) described in the report of Ishizaki et al. (Ishizaki, T. et al., EMBO J., 15, pp 1885-1893, 1996). Further, as the MBS protein and anti-phosphorylated MBS antibody, those prepared according to the method described in the paper of Ito et al. (Ito, K et al., J. Physiol., 546, pp 823-836, 2003) were used.
# A solution of MBS (Asahi Kasei Pharma, lot No, 040814n7-10) diluted with PBS to an appropriate concentration was added to an ELISA plate (Maxisorp, Nunc), and left, stand overnight at 4° C., and then the wells were washed twice with a washing solution (WB, washing buffer, 0.1% Tween 20/PBS). To the wells were added 1% bovine serum albumin (Sigma)/PBS, and left for 1 to 3 hours, and then the wells were washed 5 times with WB to prepare a substrate-immobilized plate. Onto this plate, a reaction mixture (5 mM MgSO4/0.1 M NaCl/20 mM HEPES (pH 7.5)/100 μM ATP/5 mM DTT), a test compound, and appropriately diluted human ROCK1 (Asahi Kasei Pharma, lot No, 030126.120-22) were added, and then reacted at 30° C. for 10 minutes. Then, 0.2 M EDTA (pH 7.5) was added to terminate the reaction, and the wells were washed 5 times with WB. A rabbit anti-phosphorylated MBS antibody solution (Asahi Kasei Pharma, lot No, 122676431) diluted 10,000 times with WB containing 1% bovine serum albumin was added to the wells, and after the reaction for 1 hour, the wells were washed 5 times with WB. Goat anti-rabbit IgG-HRP (Zymed) diluted 1,000 times with WB containing 1% bovine serum albumin was added to the wells as the secondary detection antibody and the mixture was reacted for 1 hour, and then the wells were washed 5 times with WB. An OPD (o-phenylenediamine) solution (1 mg/ml OPD, Sigma), 5.1 g/l of citric acid monohydrate, and 18.4 g/l of Na2HPO4.12H2O were added to the wells to develop color, […] was added 5 minutes later to terminate the color development, and absorbance was measured at 490 nm.
# The inhibition ratio was calculated as follows. Inhibition ratio(%)=[…]
# Further, the inhibition ratio was calculated with changing the concentration of the test compound, and a compound concentration providing an inhibition ratio of 50% was obtained as IC50.
# [2] = system: rabbit normal intraocular pressure; test: Intraocular pressure reducing action; type: in vivo, Japanese white rabbit; conditions: Oryctolagus cuniculus, topical; 3 mM aqueous solution, 50 μl to the left eye; max IOP reduction (2, 4, 6 hours) / value immediately before administration; read-out: intraocular pressure reducing degree
# Experimental: A Japanese white rabbit having a body weight of about 2 kg was placed in a positioner and naturalized for one week before the experiment. An opthalmologic local anesthesant (Benoxil) was administered to both eyes, and then intraocular pressure was measured by using a tonometer (Classic 30, Solan). A 3 mM aqueous solution of a test compound was administered in a volume of 50 μl to the left eye, and the right eye was not treated (control eye). The intraocular pressure values were measured for the left and right eyes immediately before, and 2, 4 and 6 hours after the administration of the aqueous solution of the test compound, and the difference of the measured values for the left and right eyes was considered an intraocular pressure reduction value of the test medicament at each measurement time. The largest difference of the values for the left and right eyes among the measured values at the measurement times (after 2, 4 and 6 hours) was considered the maximum intraocular pressure reduction value (max ? IOP) of each test medicament. The intraocular pressure reducing degree representing the intraocular pressure reducing action of each test medicament was calculated according to the following formula. Since rabbits show significant daily variation of intraocular pressure, daily variation is added when change of intraocular pressure is measured over time, and the intraocular pressure reducing action may be overestimated. Therefore, we used this calculation method of intraocular pressure reduction value in order to minimize the influence of the variation. Intraocular pressure reducing degree(%)=(max ? IOP/Intraocular pressure value immediately before administration)×100
# T1 sequence (Q13464 1-727): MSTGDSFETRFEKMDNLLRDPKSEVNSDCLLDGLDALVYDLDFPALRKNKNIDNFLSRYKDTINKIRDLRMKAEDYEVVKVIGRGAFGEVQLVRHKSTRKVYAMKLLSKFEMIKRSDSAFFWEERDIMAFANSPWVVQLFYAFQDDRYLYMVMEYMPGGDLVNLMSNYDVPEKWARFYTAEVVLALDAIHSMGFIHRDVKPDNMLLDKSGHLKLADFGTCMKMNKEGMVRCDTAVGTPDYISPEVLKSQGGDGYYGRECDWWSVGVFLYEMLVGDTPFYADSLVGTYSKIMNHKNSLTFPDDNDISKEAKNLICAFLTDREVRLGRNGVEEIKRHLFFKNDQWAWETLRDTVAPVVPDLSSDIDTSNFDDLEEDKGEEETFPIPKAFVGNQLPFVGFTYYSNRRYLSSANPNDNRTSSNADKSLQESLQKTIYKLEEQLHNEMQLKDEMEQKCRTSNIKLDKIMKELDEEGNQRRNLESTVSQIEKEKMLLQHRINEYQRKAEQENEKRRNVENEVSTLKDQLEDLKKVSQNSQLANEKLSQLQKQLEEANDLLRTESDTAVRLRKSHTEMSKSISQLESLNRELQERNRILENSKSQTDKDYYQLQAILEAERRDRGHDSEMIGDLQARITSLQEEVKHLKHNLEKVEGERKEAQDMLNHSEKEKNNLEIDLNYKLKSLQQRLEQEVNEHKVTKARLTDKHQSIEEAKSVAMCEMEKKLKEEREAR
smiles,measurement,setting,value
"COc1cncc2cccc(S(=O)(=O)N3CC[C@H](N)C3)c12 [Example 15-1, (S)-3-Amino-1-(4-methoxy-5-isoquinolinesulfonyl)pyrrolidine]",IC50,[1],1 to 3 µM
same,inhibition in vivo at 3000 µM,[2],5 to 10%
"O=C(Cn1cnnn1)N[C@H]1CCN(S(=O)(=O)c2cccc3cncc(Cl)c23)C1 [Example 85, (S)-3-[2-(1H-Tetrazol-1-yl)acetyl]amino-1-(4-chloro-5-isoquinolinesulfonyl)pyrrolidine]",IC50,[1],1 to 3 µM
same,inhibition in vivo at 3000 µM,[2],10 to 20%
"Cc1cncc2cccc(S(=O)(=O)N3CC[C@@H](N)C3)c12 [Example 8-2, (R)-3-Amino-1-(4-methyl-5-isoquinolinesulfonyl)pyrrolidine]",IC50,[1],< 1 µM
same,inhibition in vivo at 3000 µM,[2],≥ 20%
"N[C@H]1CCN(S(=O)(=O)c2cccc3c(O)ncc(Br)c23)C1 [Example 7-1, (S)-3-Amino-1-(1-hydroxy-4-bromo-5-isoquinolinesulfonyl)pyrrolidine]",IC50,[1],< 1 µM
same,inhibition in vivo at 3000 µM,[2],≥ 20%
"NCC1CN(S(=O)(=O)c2cccc3cncc(Cl)c23)C1 [Example 60, 3-(Aminomethyl)-1-(4-chloro-5-isoquinolinesulfonyl)azetidine]",IC50,[1],1 to 3 µM
same,inhibition in vivo at 3000 µM,[2],5 to 10%
Cc1cncc2cccc(S(=O)(=O)N3CC[C@H](NC(C)C)C3)c12 [Example 8-27],IC50,[1],1 to 3 µM
same,inhibition in vivo at 3000 µM,[2],10 to 20%
"O=C(N[C@H]1CCN(S(=O)(=O)c2cccc3cncc(Cl)c23)C1)C1CNCCO1 (stereo partly drawn) [Example 102, N—[(S)-1-(4-chloro-5-isoquinolinesulfonyl)pyrrolidin-3-yl]morpholin-2-carboxamide]",IC50,[1],< 1 µM
same,inhibition in vivo at 3000 µM,[2],≥ 20%
Cc1cncc2cccc(S(=O)(=O)N3CC[C@H](NC4CCCCC4)C3)c12 [Example 8-30],IC50,[1],1 to 3 µM
same,inhibition in vivo at 3000 µM,[2],5 to 10%
NCCN[C@H]1CCN(S(=O)(=O)c2cccc3cncc(Br)c23)C1 [Example 1-31],IC50,[1],< 1 µM
same,inhibition in vivo at 3000 µM,[2],10 to 20%
"CC(N)C1CCN(S(=O)(=O)c2cccc3cncc(Cl)c23)C1 (stereo not shown) [Example 45, 3-(1-Aminoethyl)-1-(4-chloro-5-isoquinolinesulfonyl)pyrrolidine]",IC50,[1],1 to 3 µM
same,inhibition in vivo at 3000 µM,[2],5 to 10%
C#Cc1cncc2cccc(S(=O)(=O)N3CC[C@H](NCc4ccc(OC)cc4)C3)c12 [Example 10-7],IC50,[1],< 1 µM
same,inhibition in vivo at 3000 µM,[2],10 to 20%
"CN[C@@H]1CCN(S(=O)(=O)c2cccc3cncc(C)c23)C1 [Example 27, (R)-3-(Methylamino)-1-(4-methyl-5-isoquinolinesulfonyl)pyrrolidine]",IC50,[1],< 1 µM
same,inhibition in vivo at 3000 µM,[2],5 to 10%
CC(N)C1CCN(S(=O)(=O)c2cccc3cncc(Cl)c23)CC1 (stereo not shown) [Example 53],IC50,[1],< 1 µM
same,inhibition in vivo at 3000 µM,[2],10 to 20%
"Nc1cncc2cccc(S(=O)(=O)N3CC[C@H](N)C3)c12 [Example 12-1, (S)-3-Amino-1-(4-amino-5-isoquinolinesulfonyl)pyrrolidine]",IC50,[1],1 to 3 µM
same,inhibition in vivo at 3000 µM,[2],10 to 20%
"N[C@H]1CCN(S(=O)(=O)c2cccc3c(O)ncc(Cl)c23)C1 [Example 30-1, (S)-3-Amino-1-(1-hydroxy-4-chloro-5-isoquinolinesulfonyl)pyrrolidine]",IC50,[1],< 1 µM
same,inhibition in vivo at 3000 µM,[2],≥ 20%
Cc1cncc2cccc(S(=O)(=O)N3CC[C@H](NCCN)C3)c12 [Example 8-32],IC50,[1],< 1 µM
same,inhibition in vivo at 3000 µM,[2],5 to 10%
"O=S(=O)(c1cccc2c(O)ncc(Br)c12)N1CC[C@H](NCc2ccco2)C1 [Example 38-1, (S)-1-(1-Hydroxy-4-bromo-5-isoquinolinesulfonyl)-3-(2-furylmethylamino)pyrrolidine]",IC50,[1],1 to 3 µM
same,inhibition in vivo at 3000 µM,[2],5 to 10%
"O=C(COc1cccnc1)N[C@H]1CCN(S(=O)(=O)c2cccc3cncc(Cl)c23)C1 [Example 104, (S)-3-[2-(3-Pyridyloxy)acetyl]amino-1-(4-chloro-5-isoquinolinesulfonyl)pyrrolidine]",IC50,[1],1 to 3 µM
same,inhibition in vivo at 3000 µM,[2],≥ 20%
"O=C(CN1CCC1)N[C@H]1CCN(S(=O)(=O)c2cccc3cncc(Cl)c23)C1 [Example 114, (S)-3-[2-(Azetidin-1-yl)acetyl]amino-1-(4-chloro-5-isoquinolinesulfonyl)pyrrolidine]",IC50,[1],1 to 3 µM
same,inhibition in vivo at 3000 µM,[2],5 to 10%
"CCc1cncc2cccc(S(=O)(=O)N3CC[C@H](N)C3)c12 [Example 23-1, (S)-3-Amino-1-(4-ethyl-5-isoquinolinesulfonyl)pyrrolidine]",IC50,[1],< 1 µM
same,inhibition in vivo at 3000 µM,[2],10 to 20%
"Cc1cnc(O)c2cccc(S(=O)(=O)N3CC[C@H](N)C3)c12 [Example 25-1, (S)-3-Amino-1-(1-hydroxy-4-methyl-5-isoquinolinesulfonyl)pyrrolidine]",IC50,[1],< 1 µM
same,inhibition in vivo at 3000 µM,[2],10 to 20%
O=S(=O)(c1cccc2cncc(Br)c12)N1CC[C@H](NCc2ccoc2)C1 [Example 1-14],IC50,[1],< 1 µM
same,inhibition in vivo at 3000 µM,[2],5 to 10%
"O=C(N[C@H]1CCN(S(=O)(=O)c2cccc3cncc(Cl)c23)C1)C1COCCO1 (stereo partly drawn) [Example 109, N—[(S)-1-(4-Chloro-5-isoquinolinesulfonyl)pyrrolidin-3-yl]-1,4-dioxane-2-carboxamide]",IC50,[1],1 to 3 µM
same,inhibition in vivo at 3000 µM,[2],≥ 20%
"O=C(COC1CCOCC1)N[C@H]1CCN(S(=O)(=O)c2cccc3cncc(Cl)c23)C1 [Example 110, (S)-3-[[2-(Tetrahydro-2H-pyran-4-yloxy)]acetyl]amino-1-(4-chloro-5-isoquinolinesulfonyl)pyrrolidine]",IC50,[1],1 to 3 µM
same,inhibition in vivo at 3000 µM,[2],≥ 20%
"Cc1cncc2cccc(S(=O)(=O)N3CC[C@H](NCCCNC(=O)Nc4ccccc4)C3)c12 [Example 65-1, (S)—N-[3-[1-(4-Methyl-5-isoquinolinesulfonyl)pyrrolidin-3-yl]aminopropyl],N′-phenylurea]",IC50,[1],< 1 µM
same,inhibition in vivo at 3000 µM,[2],10 to 20%
"N[C@H]1CCN(S(=O)(=O)c2cccc3cncc(Br)c23)C1 [Example 1-1, (S)-3-Amino-1-(4-bromo-5-isoquinolinesulfonyl)pyrrolidine]",IC50,[1],< 1 µM
same,inhibition in vivo at 3000 µM,[2],≥ 20%
"O=C(CCN1CCCCC1)N[C@H]1CCN(S(=O)(=O)c2cccc3cncc(Cl)c23)C1 [Example 80, (S)-3-[3-(Piperidin-1-yl)propionyl]amino-1-(4-chloro-5-isoquinolinesulfonyl)pyrrolidine]",IC50,[1],1 to 3 µM
same,inhibition in vivo at 3000 µM,[2],5 to 10%
"Cc1cncc2cccc(S(=O)(=O)N3CCC[C@H](N)C3)c12 [Example 22-1, (S)-3-Amino-1-(4-methyl-5-isoquinolinesulfonyl)piperidine]",IC50,[1],< 1 µM
same,inhibition in vivo at 3000 µM,[2],10 to 20%
"O=C(CCN1CCNCC1)N[C@H]1CCN(S(=O)(=O)c2cccc3cncc(Cl)c23)C1 [Example 83, (S)-3-[3-(piperazin-1-yl)propionyl]amino-1-(4-chloro-5-isoquinolinesulfonyl)pyrrolidine]",IC50,[1],1 to 3 µM
same,inhibition in vivo at 3000 µM,[2],10 to 20%
